US6617312B1, “Vasoactive amine binding molecules” (Oxford Vacs Ltd., priority 1996, dated 2003)

Key:
[1] = target: Rhipicephalus appendiculatus rMS-HBP1, His6-tagged, SEQ ID NO: 20 (Rhipicephalus appendiculatus, UniProt O77422); settings: ^3H-histamine ~0.3 pmol (11,200 cpm), rMS-HBP1 ~100 pmol, 5 measurements
[2] = target: T1, Rhipicephalus appendiculatus rFS-HBP1, His6-tagged, expressed in Spodoptera frugiperda Sf21 cells (baculovirus), SEQ ID NO: 16 (Rhipicephalus appendiculatus, UniProt O77420); assay: Histamine binding assay (radiolabelled histamine, PEG precipitation, Scatchard), rFS-HBP1
T1 construct: Gly-Ile-(His)6 (C); made in house; host or cells: Spodoptera frugiperda Sf21 cells (baculovirus BacPak6)
Method: (§1) Construction of clones. FS-HBP1, FS-HBP2 and MS-HBP1 were expressed as histidine-tagged proteins (rFS-HBP1, rFS-HBP2 and rMS-HBP1) in Spodoptera frugiperda ovarian cells (Sf21).
In order to append the His6 tag, the coding region of FS-HBP1 was first amplified using the polymerase chain reaction (PCR). […] The forward primer used was: 5′-[…] (SEQ ID NO:3); the reverse primer was: 5′-[…] (SEQ ID NO:4). The primers were designed so that a SacI site was added upstream of the start codon, whilst the stop codon was replaced by a BamHI site, followed by 6 histidine codons and an SpeI site comprising a TAG stop codon. The PCR product was cut with SacI and SpeI. The latter enzyme creates a compatible overhang with XbaI, enabling the fragment to be ligated between the SacI and XbaI sites of the pAcC129.1 transfer vector (Livingstone and Jones (1989) Nucleic Acids Res. 17:2366), generating the plasmid pACC129.1-FS1.HIS. This plasmid therefore contained the sequence Gly-Ile-(His)6 appended to the carboxy terminus of the FS-HBP1 translation product.
(§2) The baculovirus expression system was used for expression of the three tagged polypeptides. Spodoptera (Sf21) cells were transfected with the transfer vectors and baculovirus (BacPak6; Clontech). Recombinant virus was amplified as according to Kitts and Possee (1993) BioTechniques 14:810-817). […]

[3] = target: Rhipicephalus appendiculatus FS-HBP2 (SEQ ID NO: 18) truncated version lacking the 28 C-terminal amino acids, bacterially expressed (Rhipicephalus appendiculatus, UniProt O77421)
[4] = target: Rhipicephalus appendiculatus FS-HBP2 (SEQ ID NO: 18) truncated version lacking the 45 N-terminal amino acids, bacterially expressed (Rhipicephalus appendiculatus, UniProt O77421)
[5] = target: T2, Rhipicephalus appendiculatus rFS-HBP2, His6-tagged, expressed in Spodoptera frugiperda Sf21 cells (baculovirus), SEQ ID NO: 18 (Rhipicephalus appendiculatus, UniProt O77421); assay: Histamine binding assay (radiolabelled histamine, PEG precipitation, Scatchard), rFS-HBP2
T2 construct: Ile-(His)6 (C); made in house; host or cells: Spodoptera frugiperda Sf21 cells (baculovirus BacPak6)
Method: as §1
(§3) This plasmid pACC129.1-FS1.HIS was also used for expression of histidine-tagged FS-HBP2 and MS-HBP1. The FS-HBP1 cDNA was deleted using SacI and BamHI thus leaving the histidine codons intact. An upstream SacI and a downstream BglII site (BglII and BamHI create compatible overhangs) were added to the FS-HBP2 and MS-HBP1 coding regions by PCR. […] The forward primer, in the case of FS-HBP2 was: 5′-[…] (SEQ ID NO:5); the reverse primer was: 5′-[…] (SEQ ID NO:6). In the case of MS-HBP1 the forward primer was: 5′-[…] (SEQ ID NO:7), and the reverse primer was: 5′-[…] (SEQ ID NO:8).
(§4) Following PCR, the derived cDNAs were inserted into the vector. A Gln-Ile-(HIS)6 sequence was thus added to the carboxyterminus of the MS-HBP1 translation product, and Ile-(His)6 to the FS-HBP2 translation product.
as §2, with “14:810-817). The VABPs are clearly secretion products since they are mainly found in the culture medium of transfected cells as well as in saliva.” for “14:810-817).”

rVABPs = assay: Competition experiment: displacement of 3H-histamine from rVABPs by histamine-like compounds; settings: cold histamine, reference amount
[6] = target: T3, Rhipicephalus appendiculatus rMS-HBP1, His6-tagged, expressed in Spodoptera frugiperda Sf21 cells (baculovirus), SEQ ID NO: 20 (Rhipicephalus appendiculatus, UniProt O77422); assay: Histamine binding assay (radiolabelled histamine, PEG precipitation, Scatchard), rMS-HBP1
T3 construct: Gln-Ile-(His)6 (C); made in house; host or cells: Spodoptera frugiperda Sf21 cells (baculovirus BacPak6)
Method: as §1, §3, §4
as §2, with “14:810-817). The VABPs are clearly secretion products since they are mainly found in the culture medium of transfected cells as well as in saliva.” for “14:810-817).”

Rhipicephalus appendiculatus rMS-HBP1, His6-tagged, SEQ ID NO: 20, sequence (O77422 19-200): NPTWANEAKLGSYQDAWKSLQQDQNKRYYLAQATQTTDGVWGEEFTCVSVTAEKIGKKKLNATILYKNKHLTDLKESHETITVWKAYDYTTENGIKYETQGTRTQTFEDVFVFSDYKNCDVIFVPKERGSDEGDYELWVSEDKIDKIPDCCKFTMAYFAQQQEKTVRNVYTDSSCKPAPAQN
T2 sequence (O77421 20-190, added parts left off): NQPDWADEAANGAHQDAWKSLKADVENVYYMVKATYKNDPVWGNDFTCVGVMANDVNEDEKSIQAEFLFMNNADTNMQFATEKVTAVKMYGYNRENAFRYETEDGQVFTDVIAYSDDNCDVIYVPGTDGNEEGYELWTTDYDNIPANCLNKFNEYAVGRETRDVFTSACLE
Rhipicephalus appendiculatus FS-HBP2 (SEQ ID NO: 18) truncated version lacking the 28 C-terminal amino acids, bacterially expressed, sequence (O77421 20-162): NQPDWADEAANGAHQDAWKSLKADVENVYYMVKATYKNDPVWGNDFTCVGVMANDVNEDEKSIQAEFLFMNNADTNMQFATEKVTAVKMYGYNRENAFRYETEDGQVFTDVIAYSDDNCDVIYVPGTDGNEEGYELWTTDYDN
T1 sequence (O77420 19-190, added parts left off): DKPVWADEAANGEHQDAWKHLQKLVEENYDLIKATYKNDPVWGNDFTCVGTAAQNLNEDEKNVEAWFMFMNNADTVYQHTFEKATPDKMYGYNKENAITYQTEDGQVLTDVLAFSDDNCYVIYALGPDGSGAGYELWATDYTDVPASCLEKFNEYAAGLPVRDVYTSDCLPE
T3 sequence (O77422 19-200, added parts left off): as the sequence (O77422 19-200) above
Rhipicephalus appendiculatus FS-HBP2 (SEQ ID NO: 18) truncated version lacking the 45 N-terminal amino acids, bacterially expressed, sequence (O77421 65-190): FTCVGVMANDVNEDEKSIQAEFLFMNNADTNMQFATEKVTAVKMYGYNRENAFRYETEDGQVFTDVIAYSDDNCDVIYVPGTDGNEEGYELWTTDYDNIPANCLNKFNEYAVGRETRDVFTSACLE

NCCc1c[nH]cn1 [^3H-histamine]
bound radioligand, without added histamine [1]: 6,840±150 cpm

NCCc1c[nH]cn1 [histamine]
Kd [2]: 78 nM | bound radioligand, supplemented with histamine ([1]; plus histamine 0.5 pmol): 7,560±110 cpm | binding to histamine [3]: do not bind to histamine at all | binding to histamine [4]: do not bind to histamine at all | Kd [5]: 1.7 nM | displacement of ^3H-histamine from the binding sites (rVABPs): more than 95% | Kd [6]: 1.2 nM
